Legend:
[1] = tested on: HMC1.1 cells (naturally expressing KITV560G); assay: cells; conditions: Homo sapiens, 72 h, read-out: inhibition of proliferation
Protocol: The cell-viability assay was performed using an ATPlite™ assay (PerkinElmer Life Sciences, Boston, Mass.), according to the manufacturer's protocol. […] Cells were incubated for 72 hours in the presence or absence of KIT inhibitors and cell viability measured

[2] = tested on: constitutively active KIT mutants exhibiting mutations in the juxtamembrane domain; conditions: cited from earlier work
KIT816 mutants = conditions: previous studies; cited from earlier work
KITD814V and KITD814Y = KITD814V and KITD814Y expressed in transfected cells; cited from earlier work

| Compound | inhibition at 0.1 µM [1] [%] | inhibition of constitutively active KIT mutants [2] | effectiveness against KIT816 mutants (KIT816 mutants) | inhibition of activated KIT receptors (KITD814V and KITD814Y) |
| --- | --- | --- | --- | --- |
| Cc1ccc(NC(=O)c2ccc(CN3CCN(C)CC3)cc2)cc1Nc1nccc(-c2cccnc2)n1 [Gleevec] | ~80 | inhibit constitutively active KIT mutants | ineffective |  |
| Cc1ccc(-c2nn(C(C)(C)C)c3ncnc(N)c23)cc1 [PP1] |  |  |  | act as inhibitors of activated KIT receptors |
| CC(C)(C)n1nc(-c2ccc(Cl)cc2)c2c(N)ncnc21 [PP2] |  |  |  | act as inhibitors of activated KIT receptors |

Reference: patent publication US20070225202A1, “Methods for Identifying Modulators of Active Kit Tyrosine Kinase Receptor” (priority 2003, published 2007)
